According to patent US7772264B2, “Salt and polymorphs of a DPPIV inhibitor” (Hoffmann-La Roche Inc., priority 2005, dated 2010):
Structures can show the parent of a compound that is named as a salt.

Experiments:
[1] = target: T1, human DPP-IV (Homo sapiens, UniProt P27487); assay: DPP-IV activity assay (fluorogenic / colorimetric); assay type: biochemical; conditions: natural human DPP-IV from plasma pool or recombinant human DPP-IV; 37° C., pH 7.8
T1 construct: made in house; host or cells: Pichia pastoris (secreted, purified from the culture medium)
Protocol: Activity of DPP-IV inhibitors are tested with natural human DPP-IV derived from a human plasma pool or with recombinant human DPP-IV. Human citrate plasma from different donors is pooled, filtered through a 0.2 micron membrane under sterile conditions and aliquots of 1 mL are shock frozen and stored at −120° C. until used. In the colorimetric DPP-IV assay 5 to 10 μL human plasma and in the fluorometric assay 1.0 μL of human plasma in a total assay volume of 100 μL is used as an enzyme source. The cDNA of the human DPP-IV sequence of amino acid 31- to 766, restricted for the N-terminus and the transmembrane domain, is cloned into pichia pastoris. […]
In the calorimetric assay H-Ala-Pro-pNA.HCl (Bachem L-1115) is used as a substrate. […] Fluorescence is detected in a Perkin Elmer Luminescence Spectrometer LS 50B at an excitation wavelength of 400 nm and an emission wavelength of 505 nm continuously every 15 seconds for 10 to 30 minutes. Initial rate constants are calculated by best fit linear regression. The absorption of pNA liberated from the calorimetric substrate is detected in a Packard SpectraCount at […] continuously every 2 minutes for 30 to 120 minutes. Initial rate constants are calculated by best fit linear regression. […]
IC50 determinations of test compounds are calculated by non-linear best fit regression of the DPP-IV inhibition of at least 5 different compound concentrations. […]

[2] = Hygroscopicity observation (water uptake and release of the crystal form); assay type: physicochemical; conditions: solid crystal form; XRPD and IR vary with humidity of the sample
Description: It has been observed that the polymorph B is hygroscopic and that the X-ray powder diffraction pattern and the IR-spectrum of polymorph B can vary, depending on the humidity of the analyzed sample. Water uptake and release, respectively, result in systematic shifts of some peak positions in the X-ray powder diffraction pattern. The crystal form B is characterized by a set of peaks, as described above, that are not susceptible to peak shifts in a range larger than 0.2 degrees in 2-theta. Samples of polymorph B, which have been dried, e.g. by elevated temperature or in a dry atmosphere, show the same X-ray powder diffraction pattern. In the IR spectrum of polymorph B, variations of humidity of the sample are mainly observed in following regions: 3700-3300, 1250-1150, 1045-1000 970-955, 900-850 cm^−1. However, changes of humidity can also have an influence on the position of the peaks outside these ranges.

T1 sequence (P27487 31-766): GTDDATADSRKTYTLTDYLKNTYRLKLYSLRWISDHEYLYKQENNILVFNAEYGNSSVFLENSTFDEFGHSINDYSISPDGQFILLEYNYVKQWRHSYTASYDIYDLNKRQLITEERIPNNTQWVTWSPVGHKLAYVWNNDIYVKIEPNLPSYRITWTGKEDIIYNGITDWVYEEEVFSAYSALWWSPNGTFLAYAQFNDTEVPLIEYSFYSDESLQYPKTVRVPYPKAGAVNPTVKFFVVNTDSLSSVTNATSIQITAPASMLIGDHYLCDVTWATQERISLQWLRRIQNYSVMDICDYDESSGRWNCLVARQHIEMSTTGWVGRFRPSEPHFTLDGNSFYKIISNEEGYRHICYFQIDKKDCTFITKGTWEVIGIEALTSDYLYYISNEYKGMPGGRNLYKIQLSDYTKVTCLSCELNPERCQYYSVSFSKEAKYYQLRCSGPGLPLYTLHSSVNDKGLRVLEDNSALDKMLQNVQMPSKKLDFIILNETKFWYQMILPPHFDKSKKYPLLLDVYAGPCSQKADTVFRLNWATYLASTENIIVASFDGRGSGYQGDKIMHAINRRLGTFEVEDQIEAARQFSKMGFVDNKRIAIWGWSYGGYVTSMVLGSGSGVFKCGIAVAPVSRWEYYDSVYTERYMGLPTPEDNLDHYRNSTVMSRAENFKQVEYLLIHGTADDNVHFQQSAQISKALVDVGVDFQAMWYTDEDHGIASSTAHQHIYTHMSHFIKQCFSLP

IC50 [1] [nM] | Ki [1] [nM] | hygroscopicity [2] | SMILES
75 | 80 | – | Cc1oc(-c2ccccc2)nc1CCNCC(=O)N1CCC[C@H]1C#N [(S)-1-{[2-(5-Methyl-2-phenyl-oxazol-4-yl)-ethylamino]-acetyl}-pyrrolidine-2-carbonitrile mesylate]
– | – | hygroscopic | CS(=O)(=O)O.Cc1oc(-c2ccccc2)nc1CCNCC(=O)N1CCC[C@H]1C#N [polymorph B, (S)-1-{[2-(5-Methyl-2-phenyl-oxazol-4-yl)-ethylamino]-acetyl}-pyrrolidine-2-carbonitrile mesylate]
